# US8846736B2, “Pyrrole inhibitors of S-nitrosoglutathione reductase as therapeutic agents” (N30 Pharmaceuticals, Inc., priority 2008, dated 2014)
# Target: T1, GSNOR (GSNO Reductase) (Homo sapiens, UniProt P11766)
# T1 construct: made in house; host or cells: E. coli (arabinose-induced)
# Experiment: GSNOR assay (in vitro inhibition of GSNOR activity, change in 340 nm absorbance)
# Assay type: biochemical
# Conditions: GSNOR inhibitor activity by the assay of Example 2; 0.240 mM GSNO, 0.300 mM NADH, pH 7.4, 25° C.; values given as 'about' bounds
# Experimental: Various compounds were tested in vitro for their ability to inhibit GSNOR activity. Representative compounds and their corresponding GSNOR activity are described in a paragraph before Table 1 above. GSNOR expression and purification is described in Biochemistry 2000, 39, 10720-10729.
# Pre-cultures were grown from stabs of a GSNOR glycerol stock in 2XYT media containing 100 ug/ml ampicillin after an overnight incubation at 37° C. Cells were then added to fresh 2XYT (4 L) containing ampicillin and grown to an OD (A600) of 0.6-0.9 at 37° C. before induction. GSNOR expression was induced with 0.1% arabinose in an overnight incubation at 20° C.
# E. coli cell paste was lysed by nitrogen cavitation and the clarified lysate purified by Ni affinity chromatography on an AKTA FPLC (Amersham Pharmacia). The column was eluted in 20 mM Tris pH 8.0/250 mM NaCl with a 0-500 mM imidazole gradient. […] GSNOR was recovered in the flowthrough fraction and for crystallography is further purified by Q-Sepharose and Heparin flowthrough chromatography in 20 mM Tris pH 8.0, 1 mM DTT, 10 uM ZnSO4.
# GSNO and Enzyme/NADH Solutions are made up fresh each day. The Solutions are filtered and allowed to warm to room temperature. GSNO Solution: 100 mM NaPO4 (pH 7.4), 0.480 mM GSNO. 396 μL of GSNO Solution is added to a cuvette followed by 8 μL of test compound in DMSO (or DMSO only for full reaction control) and mixed with the pipette tip. Compounds to be tested are made up at a stock concentration of 10 mM in 100% DMSO. 2 fold serial dilutions are done in 100% DMSO. 8 μL of each dilution are added to an assay so that the final concentration of DMSO in the assay is 1%. The concentrations of compounds tested range from 100 to 0.003 μM. Enzyme/NADH Solution: 100 mM NaPO4 (pH 7.4), 0.600 mM NADH, 1.0 μg/mL GSNO Reductase. 396 μL of the Enzyme/NADH Solution is added to the cuvette to start the reaction. The cuvette is placed in the Cary 3E UV/Visible Spectrophotometer and the change in 340 nm absorbance/min at 25° C. is recorded for 3 minutes. The assays are done in triplicate for each compound concentration. IC50's for each compound are calculated using the standard curve analysis in the Enzyme Kinetics Module of SigmaPlot.
# Final assay conditions: 100 mM NaPO4, pH 7.4, 0.240 mM GSNO, 0.300 mM NADH, 0.5 μg/mL GSNO Reductase and 1% DMSO. Final volume: 800 μL/cuvette.
# T1 sequence (P11766 whole entry): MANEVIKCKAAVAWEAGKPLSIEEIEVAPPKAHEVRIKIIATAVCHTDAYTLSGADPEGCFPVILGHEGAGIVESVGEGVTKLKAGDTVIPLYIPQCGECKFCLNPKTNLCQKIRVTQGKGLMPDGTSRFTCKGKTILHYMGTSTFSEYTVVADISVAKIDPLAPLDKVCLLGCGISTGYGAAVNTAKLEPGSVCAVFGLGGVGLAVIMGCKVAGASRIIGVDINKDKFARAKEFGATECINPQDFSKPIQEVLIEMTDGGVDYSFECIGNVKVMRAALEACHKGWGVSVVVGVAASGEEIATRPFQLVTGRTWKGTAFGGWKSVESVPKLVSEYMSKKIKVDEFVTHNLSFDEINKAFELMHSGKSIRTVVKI
row,Compound,IC50
1,"NC(=O)c1ccc(-n2c(CCc3nnn[nH]3)ccc2-c2ccccc2)cc1 [Compound 1, 4-(2-(2-(1H-tetrazol-5-yl)ethyl)-5-phenyl-1H-pyrrol-1-yl)benzamide]",< 1000 nM
2,"COc1ccc(-c2ccc(CCc3nnn[nH]3)n2-c2ccc(C(N)=O)cc2C)cc1 [Compound 4, 4-(2-(2-(1H-tetrazol-5-yl)ethyl)-5-(4-methoxyphenyl)-1H-pyrrol-1-yl)-3-methylbenzamide]",< 5000 nM
3,"Oc1ccc(-n2c(CCc3nnn[nH]3)ccc2-c2ccc(Br)cc2)cc1 [Compound 5, 4-(2-(2-(1H-tetrazol-5-yl)ethyl)-5-(4-bromophenyl)-1H-pyrrol-1-yl)phenol]",< 1000 nM
4,"Oc1ccc(-n2c(Cc3nnn[nH]3)ccc2-c2ccc(Br)cc2)cc1 [Compound 6, 4-(2-((1H-tetrazol-5-yl)methyl)-5-(4-bromophenyl)-1H-pyrrol-1-yl)phenol]",< 5000 nM
5,"Oc1ccc(-n2c(CCc3nnn[nH]3)ccc2-c2ccc(-n3ccnc3)cc2)cc1 [Compound 8, 4-(2-(4-(1H-imidazol-1-yl)phenyl)-5-(2-(1H-tetrazol-5-yl)ethyl)-1H-pyrrol-1-yl)phenol]",< 1000 nM
6,"Cc1cc(C(N)=O)ccc1-n1c(Cc2nnn[nH]2)ccc1-c1ccc(Br)cc1 [Compound 9, 4-(2-((1H-tetrazol-5-yl)methyl)-5-(4-bromophenyl)-1H-pyrrol-1-yl)-3-methylbenzamide]",< 1000 nM
7,"COc1ccc(-c2ccc(Cc3nnn[nH]3)n2-c2ccc(C(N)=O)cc2C)cc1 [Compound 10, 4-(2-((1H-tetrazol-5-yl)methyl)-5-(4-methoxyphenyl)-1H-pyrrol-1-yl)-3-methylbenzamide]",< 5000 nM
8,"Cc1cc(C(N)=O)ccc1-n1c(CCc2nnn[nH]2)ccc1-c1ccc(Br)cc1 [Compound 11, 4-(2-(2-(1H-tetrazol-5-yl)ethyl)-5-(4-bromophenyl)-1H-pyrrol-1-yl)-3-methylbenzamide]",< 1000 nM
9,"Oc1ccc(-n2c(Cc3nnn[nH]3)ccc2-c2ccc(-n3ccnc3)cc2)cc1 [Compound 12, 4-(2-(4-(1H-imidazol-1-yl)phenyl)-5-((1H-tetrazol-5-yl)methyl)-1H-pyrrol-1-yl)phenol]",< 1000 nM
10,"COc1ccc(-c2ccc(CCc3nnn[nH]3)n2-c2ccc(O)cc2)cc1 [Compound 13, 4-(2-(2-(1H-tetrazol-5-yl)ethyl)-5-(4-methoxyphenyl)-1H-pyrrol-1-yl)phenol]",< 5000 nM
11,"COc1cc(Cl)ccc1-c1ccc(CCc2nnn[nH]2)n1-c1ccc(O)cc1 [Compound 14, 4-(2-(2-(1H-tetrazol-5-yl)ethyl)-5-(4-chloro-2-methoxyphenyl)-1H-pyrrol-1-yl)phenol]",< 1000 nM
12,"COc1cc(Br)ccc1-c1ccc(CCc2nnn[nH]2)n1-c1ccc(O)cc1 [Compound 15, 4-(2-(2-(1H-tetrazol-5-yl)ethyl)-5-(4-bromo-2-methoxyphenyl)-1H-pyrrol-1-yl)phenol]",< 1000 nM
13,"COc1cc(Cl)ccc1-c1ccc(CCc2nnn[nH]2)n1-c1ccc(C(N)=O)cc1C [Compound 16, 4-(2-(2-(1H-tetrazol-5-yl)ethyl)-5-(4-chloro-2-methoxy-phenyl)-1H-pyrrol-1-yl)-3-methylbenzamide]",< 1000 nM
14,"COc1cc(Br)ccc1-c1ccc(CCc2nnn[nH]2)n1-c1ccc(C(N)=O)cc1C [Compound 17, 4-(2-(2-(1H-tetrazol-5-yl)ethyl)-5-(4-bromo-2-methoxy-phenyl)-1H-pyrrol-1-yl)-3-methylbenzamide]",< 1000 nM
15,"Cc1nccn1-c1ccc(-c2ccc(Cc3nnn[nH]3)n2-c2ccc(O)cc2)cc1 [Compound 18, 4-(2-((1H-tetrazol-5-yl)methyl)-5-(4-(2-methyl-1H-imidazol-1-yl)phenyl)-1H-pyrrol-1-yl)phenol]",< 1000 nM
16,"Cc1cc(C(N)=O)ccc1-n1c(Cc2nnn[nH]2)ccc1-c1ccc(-n2ccnc2C)s1 [Compound 19, 4-(2-((1H-tetrazol-5-yl)methyl)-5-(5-(2-methyl-1H-imidazol-1-yl)thiophen-2-yl)-1H-pyrrol-1-yl)-3-methylbenzamide]",< 1000 nM
17,"Cc1nccn1-c1ccc(-c2ccc(Cc3nnn[nH]3)n2-c2ccc(O)cc2)s1 [Compound 20, 4-(2-((1H-tetrazol-5-yl)methyl)-5-(5-(2-methyl-1H-imidazol-1-yl)thiophen-2-yl)-1H-pyrrol-1-yl)phenol]",< 1000 nM
18,"Cc1cc(C(N)=O)ccc1-n1c(Cc2nnn[nH]2)ccc1-c1ccc(-n2ccnc2C)cc1 [Compound 21, 4-(2-((1H-tetrazol-5-yl)methyl)-5-(4-(2-methyl-1H-imidazol-1-yl)phenyl)-1H-pyrrol-1-yl)-3-methylbenzamide]",< 1000 nM
19,"Cc1cc(NS(C)(=O)=O)ccc1-n1c(Cc2nn[nH]n2)ccc1-c1ccc(-n2ccnc2C)s1 [Compound 22, N-(4-(2-((1H-tetrazol-5-yl)methyl)-5-(5-(2-methyl-1H-imidazol-1-yl)-thiophen-2-yl)-1H-pyrrol-1-yl)-3-methylphenyl)-methanesulfonamide]",< 1000 nM
20,"COc1ccc(-c2ccn(CCc3nnn[nH]3)c2-c2ccc(C(N)=O)cc2C)cc1 [Compound 23, 4-(1-(2-(1H-tetrazol-5-yl)ethyl)-3-(4-methoxy-phenyl)-1H-pyrrol-2-yl)-3-methylbenzamide]",< 5000 nM
